Test results taken from patent publication US4093720A, “Novel-17-spirosultines their corresponding hydroxy acids and compositions thereof” (Roussel Uclaf, priority 1976, dated 1978).

Key:
[1] = test system: activity of 1 μg/kg of aldosterone monoacetate; assay: Antialdosterone activity in surrenalectomized rats; type: in vivo; settings: male Sprague-Dawley surrenalectomized rats; oral dose 5 mg/kg; 1 μg/kg aldosterone monoacetate s.c.; 4 hours urine collection
Procedure: Male rats of the Sprague-Dawley strain weighing about 180 g were surrenalectomized and at that moment, the rats received with drinking water a physiological serum. […] At the end of 47 hours, the rats received orally either the B isomer of (17R) 6β, 7β-methylene-2'-oxidospiro-(Δ^4 -androstene-17,5'-[1',2']-oxathiolane)-3-one (product A), the B isomer of (17R) 6α, 7α-methylene-2'-oxidospiro-(Δ^4 -androstene-17,5'-[1',2']-oxathiolane)-3-one (product B) or the B isomer of (17R) 7α-methyl-2'-oxidospiro-(Δ^4 -androstene-17,5'-[1',2']-oxathiolane)-3-one (product C) in the form of a solution or suspension in 0.25% carboxymethylcellulose. One hour after the said oral administration, the animals received a hydrosaline overdose by intraperitoned administration of 5 ml of a […] physiological serum per 100 g of body weight and 1 μg/kg of a 2.5% alcoholic solution of aldosterone monoacetate by subcutaneous administration. The animals were placed in diuresis cages without food or drink for 4 hours and at the end of 4 hours, a forced miction was caused by pressure on the bladder. The volume of urine was brought to 50 ml and the amount of sodium and potassium was determined with an autoanalyser.

androgen receptors = biological target: T1, androgen receptors (Rattus norvegicus, UniProt P15207); assay: Affinity for androgenic receptors (hormonal receptor test, rat prostate cytosol, tritiated product R); type: binding, rats; settings: for affinity for androgen receptors (in words): conclusion from Table II; for RLA (relative affinity = 100 × CT/CX): prostate cytosol of castrated male rats, tritiated 17α-methyl-Δ4,9,11-estratriene-17β-ol-3-one, 0° C, 2 hours, testosterone = 100
T1 construct: the prostate was removed from male rats castrated 24 hours earlier and was homogenized in a buffer; from tissue; host or cells: prostate cytosol (105,000g supernatant) of male rats castrated 24 hours earlier
T1 sequence (P15207 1-902): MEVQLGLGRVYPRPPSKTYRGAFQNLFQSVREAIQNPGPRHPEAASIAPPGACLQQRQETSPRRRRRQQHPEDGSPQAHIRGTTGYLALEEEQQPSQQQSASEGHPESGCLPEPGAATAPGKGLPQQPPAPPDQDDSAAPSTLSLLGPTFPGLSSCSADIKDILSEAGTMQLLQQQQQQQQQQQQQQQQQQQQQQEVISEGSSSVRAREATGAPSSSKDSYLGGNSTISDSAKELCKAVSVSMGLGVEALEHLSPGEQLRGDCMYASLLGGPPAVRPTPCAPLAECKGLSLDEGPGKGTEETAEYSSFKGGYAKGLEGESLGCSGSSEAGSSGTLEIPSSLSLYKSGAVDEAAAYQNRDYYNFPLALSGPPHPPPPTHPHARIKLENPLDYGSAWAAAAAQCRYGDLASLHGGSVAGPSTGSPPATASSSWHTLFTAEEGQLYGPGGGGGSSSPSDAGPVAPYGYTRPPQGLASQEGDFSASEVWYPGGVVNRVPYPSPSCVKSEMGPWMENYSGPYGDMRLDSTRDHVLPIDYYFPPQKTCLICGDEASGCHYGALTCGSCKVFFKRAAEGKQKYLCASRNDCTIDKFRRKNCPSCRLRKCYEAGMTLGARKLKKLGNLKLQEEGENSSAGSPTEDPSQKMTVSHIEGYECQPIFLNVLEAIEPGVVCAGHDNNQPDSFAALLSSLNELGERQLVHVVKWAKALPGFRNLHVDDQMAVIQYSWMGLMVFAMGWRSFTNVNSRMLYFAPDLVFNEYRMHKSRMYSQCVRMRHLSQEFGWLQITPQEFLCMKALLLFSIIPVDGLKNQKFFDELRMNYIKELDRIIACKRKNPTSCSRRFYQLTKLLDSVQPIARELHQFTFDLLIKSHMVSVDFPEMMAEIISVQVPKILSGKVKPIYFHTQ
Procedure: The test used was the hormonal receptor test described by Raynaud et al [J. Ster. Biochem., Vol. 6 (1975), p. 615-622] in which the prostate was removed from male rats castrated 24 hours earlier and was homogenized in a buffer: 10 millimole tromethamine, saccharose 0.25M, HCl for pH of 7.4. The homogenate was centrifuged at 105,000g for one hour and the surnageant liquid or "cytosol" was then adjusted to obtain a dilution of 1/5 (weight/volume). […] At the end of 2 hours, the radioactivity of tritiated product tied to the receptor was determined by the adsorption technique of carbondextran (1.25% to 0.625%).
B/T max. is the percentage of tritiated product R bound when no product was added and B/T min. is the percentage of tritiated product R bound when the mazimum quantity of cold product R is added. The intersections of line I50 and the curves permit the determination of the CT and CX values.

| Compound | % inhibition of the activity of aldosterone monoacetate against the urinary sodium/potassium ratio [1] | affinity for androgen receptors (in words) (androgen receptors) | RLA (relative affinity = 100 × CT/CX) (androgen receptors) |
| --- | --- | --- | --- |
| C[C@]12CCC(=O)C=C1[C@@H]1C[C@@H]1[C@@H]1[C@@H]2CC[C@@]2(C)[C@H]1CC[C@@]21CCS(=O)O1 (single isomer, unassigned) [product A] | 25% | little or no affinity | 0 |
| C[C@]12CCC(=O)C=C1[C@H]1C[C@H]1[C@@H]1[C@@H]2CC[C@@]2(C)[C@H]1CC[C@@]21CCS(=O)O1 (single isomer, unassigned) [product B] | 19% | – | – |
| C[C@@H]1CC2=CC(=O)CC[C@]2(C)[C@H]2CC[C@@]3(C)[C@@H](CC[C@@]34CCS(=O)O4)[C@H]12 (single isomer, unassigned) [product C] | 22% | little or no affinity | 3.6 |
